Source: US20050143453A1, “Selective preventing and therapeutic agents for progressive lesion after organic damage” (priority 2000, published 2005)
Where two headings read alike, the source gives them in different places.

What was measured:
[1] = test system: induction of effector macrophage by contact of human PBMC with mitomycin-treated human PBMC (allo-MLC); assay: SPFC production by allo-MLC stimulation (Test Example 2); type: cell-based; settings: for functional group (selective suppression of SPFC production by allo-MLC or LPS stimulation): summary of Table 1
[2] = test system: induction of effector macrophage by contact of human PBMC with lipopolysaccharide; assay: SPFC production by LPS stimulation (Test Example 1); type: cell-based
Method: A suppressive effect of the test compound to effector macrophage induction was investigated in vitro by an induction and production system of spontaneous plaque-forming cell (SPEC) mentioned in M. Ishibashi, S. Jiang, Y. Kokado, S. Takahara, T. Sonoda: Immunopharmacologic effects of immunosuppressive agents explored by a new effector generation assay. Transplant Proc., 21: 1854-1858, 1989.
Heparin-added peripheral blood (40 ml) was collected from a healthy person and the same amount of EDTA-added physiological saline was added. PBMC were obtained by a specific gravity centrifugal method using Ficoll-Hypaque (manufactured by Pharmacia Fine Chemicals). Self-plasma was added thereto and allowed to stand at 37° C. for 10 minutes and platelets were removed by a low-speed centrifugal separation. RPMI 1640 liquid containing 15 μg/ml of gentamicin and 2 mM L-glutamine was used for washing the PBMC. Concentration of the PBMC was adjusted to 2×10^6 cells/ml using the same liquid.
Each 200 μl of a solution containing 2×10^6 PBMC/ml prepared in the step 1 were added to each well of a micro test plate, lipopolysaccharide (hereinafter, abbreviated as LPS) was diluted with the RPMI 1640 liquid to make the final concentration 80 μg/ml and the said LPS solution was added to each well of the 200 μl-micro test plate. Further, each 50 μl of human serum of type AB were added so as to make the concentration 10% by weight. Two such micro test plates were prepared.
After that, to the above two micro test plates was added a solution where the test compound was diluted with 1% by weight of DMSO so as to make the concentration of the test compound 1 μM. Similarly were prepared each two micro test plates where the final concentrations of the test compound were 0.1 μM, 0.01 μM and 0.001 μM.
The culture liquid prepared as such was incubated for 6 days at 37° C. in 5% CO2.
The effector macrophage induced after the incubation was all recovered using a rubber-policeman (spatula made of rubber). A Hanks solution containing 5 μg/ml of gentamicin was used for washing and, using the said solution, there was prepared a solution where the concentration of the induced effector macrophage was 2×10^6 per ml.
With regard to autologous erythrocytes, those which were preserved at 4° C. in a phosphate physiological saline (hereinafter, abbreviated as PBS) to which 0.1% by weight of AB serum and autologous erythrocytes obtained from PBMC separation were used were used. The preserved autologous erythrocytes were washed for three times with a Hanks solution to which no serum was added and made into a solution of 4% by weight concentration using the said Hanks solution. Poly-L-lysine was added to a Terasaki plate and washed with PBS every 20 minutes at 37° C., the above-mentioned autologous erythrocyte solution was added thereto immediately, the mixture was allowed to stand at 37° C. for 30 minutes and the erythrocytes which were not adhered to the plate were removed to prepare a Terasaki plate to which self-erythrocytes in a monolayer were adhered.
A Hanks solution (4 μl) was added to the said Terasaki plate, 4 μl of a solution containing the induced effector macrophage obtained in the step 3 were added thereto and the mixture was allowed to stand at 37° C. for 2 hours. After completion of the reaction, it was fixed by formalin. Numbers of the produced SPFC which were adhered or phagocytized were measured.
A mean SPFC production number was calculated from the measured values of SPFC production when the concentration of the test compound was the same. SPFC production number per 1×10^6 of the induced effector macrophage was calculated and, from the recovered induced effector macrophage numbers, total SPFC production amount (S2) was calculated.
As a control, no test compound was added and the same operation as above was carried out to calculate the total SPFC production amount (S1). […]

[3] = test system: obstruction-released kidney of male SD rats; assay: Obstruction release model after complete obstruction of unilateral ureter for 14 days (UUO/Release, Test Example 3); type: in vivo, rat; set-up: key to Suppressive Effect to Glomerular Lesion / Suppressive Effect to Lesion of Tubulointerstitial Tissue: ∘: available; Δ: somewhat available; x: not available; settings: for Rate of Cases where Glomerular Lesion was Suppressed / Rate of Cases where tubulointerstitial Lesion was Suppressed / Serum Creatinine level (mg/dl) on the 7th Day from Release of Obstruction / Weight of Kidney (g) on the 7th Day from Release of Obstruction: Table 2
Method: Obstruction Release Model after Complete Obstruction of Unilateral Ureter for 14 Days
Experimental models were prepared by a method devised and established by Ishibashi (Michio Ishibashi, et al.: The Japanese Journal of Nephrology, 42: 248, 2000) using male SD rats of 8-9 weeks age and about 280 g. Thus, the rat was laparotomized under anesthetization with ether and ureter was ligated with 7-0 Nylon at the height of the margin of lower pole of left kidney to close the abdomen. On the 14th day after obstruction, the obstruction was released and urinary passage was reconstructed using a cuff. Thus, after 14 days, the part of ligated obstructed ureter was resected, a polyethylene tube of 25 gages (manufactured by Nippon Sherwood) was used as a cuff and inserted into and retained at the lumen from the cut end of the lower normal ureter, then the cuff was also retained in the expanded upper ureter and each of them was ligated and fixed by 7-0 Nylon to reconstruct the urinary passage. At the same time, the right kidney at the opposite side was excised. After the release of the obstruction, body weight was measured, blood was collected on the 2nd day, 5th day and 7th day from the release to measure serum creatinine, then the rat was sacrificed under anesthetization and the left obstruction-released kidney was excised. With regard to the excised kidney, there were carried out measurement of weight of the kidney and pathological test for the kidney.
An in vivo biological test was carried out for the γ-lactone derivatives according to the present invention using the above models. With regard to the test compound, bulk powder of the test compound was dissolved in an aseptic physiological saline together with gum arabic and the final concentration of gum arabic was 5%(vol/vol). The concentration of the test compound 30 mg/ml was suspended in 5% gum arabic-saline solution. The preparation was subcutaneously injected at the dose of 30 mg/kg every day throughout the experiment. With regard to the test compound, there were used (9-1), (4-2) and (7-3) as the compounds of group I suppressing the SPFC production by allo-MLC stimulation, i.e., the compounds which selectively suppress the induction of effector macrophage in the presence of allo-MLC while there was used (3-2) as the compound of group II suppressing the SPFC production by LPS stimulation, i.e., the compounds which selectively suppress the induction of effector macrophage in the presence of LPS.
In the Table, “functional classification” of the compound means the above group I, group II and group III. “Compound” means the compound bearing each of the above-mentioned compound numbers. The fact whether glomerular lesion was suppressed was judged by the ameriolation of the lesions such as thickness of wall of Bowman's capsule, hyperplasia of mesangial cells and glomerular sclerosis. The fact whether lesion of tubulointerstitial tissue was suppressed was judged by the ameriolation of the lesions such as thickness of basement membrane of tubules, cellular infiltration and fibrosis of interstitial tissue. In the table, “control” is the result when the same test as above was carried out using 5% gum arabic only which is a solvent.
In order to further confirm whether the preventive and therapeutic effect of the γ-lactone derivatives of the present invention to the target cell damage is selective, (7-3) of the group I and (6-1) of the group II were used as test compounds and they were subcutaneously injected at the dose of 30 mg/kg every day and compared with the control group. With regard to the control group, only 5% gum arabic which is a solvent was used and the same test as above was carried out.

[4] = 144 h, human PBMC with mitomycin-treated human PBMC, incubated 6 days, Table 1, read-out: SPFC Production Inhibiting Concentration by all-MLC Stimulation (μM: IC50)
[5] = 144 h, human PBMC with LPS 80 μg/ml, incubated 6 days, Table 1, read-out: SPFC Production Inhibiting Concentration by LPS Stimulation (μM: IC50)
[6] = Homo sapiens, Table 5, read-out: Inhibiting Concentration for SPEC Production by allo-MLC Stimulation (μM: IC50)
[7] = Homo sapiens, Table 5, read-out: Inhibiting Concentration for SPEC Production by LPS Stimulation (μM: IC50)
[8] = 30 mg/kg subcutaneously every day
[9] = Experimental Model of Rat: UUO/Release
[10] = Experimental Model of Rat: UUO/Release and CPN

O=C1CC[C@@](Oc2ccc(F)cc2)(C(=O)O)O1 [Compound (1), (−)-2-(4-fluorophenoxy)-5-oxotetrahydrofuran-2-carboxylic Acid]
IC50 [1, 4]: 0.01 µM | functional group (selective suppression of SPFC production by allo-MLC or LPS stimulation) [1]: group I | IC50 [2, 5]: > 1 µM

O=C1OC(Oc2ccc(F)cc2)(C(=O)OCc2ccccc2)c2ccccc21 (centres unmarked) [(7-5), Benzyl 1-(4-fluorophenoxy)-3-oxo-1,3-dihydroisobenzofuran-1-carboxylate]
IC50 [1, 4]: 0.01 µM | functional group (selective suppression of SPFC production by allo-MLC or LPS stimulation) [1]: group I | IC50 [2, 5]: > 1 µM

O=C1OC(Cl)(C(=O)OCc2ccccc2)c2ccccc21 (centres unmarked) [(7-3), Benzyl 1-chloro-3-oxo-1,3-dihydro-isobenzofuran-1-carboxylate]
IC50 [1, 4]: 0.01 µM | IC50 [1, 6]: 0.01 µM | functional group (selective suppression of SPFC production by allo-MLC or LPS stimulation) [1]: group I | IC50 [2, 5]: > 1 µM | IC50 [2, 7]: 0.01 µM | selectivity of the suppressive effect on renal lesions [3, 8]: selective suppressive effect | Rate of Cases where Glomerular Lesion was Suppressed [3, 8]: 25% (1/4) | Rate of Cases where tubulointerstitial Lesion was Suppressed [3, 8]: 100% (4/4) | Serum Creatinine level (mg/dl) on the 7th Day from Release of Obstruction [3, 8]: 2.0 ± 0.6 mg/dL | Weight of Kidney (g) on the 7th Day from Release of Obstruction [3, 8]: 2.72 ± 0.47 g | Suppressive Effect to Glomerular Lesion [3, 9]: x | Suppressive Effect to Lesion of Tubulointerstitial Tissue [3, 9]: ∘

CCOC(=O)C1(Oc2ccc(F)cc2)CCC(=O)O1 (racemic) [Conventional Compound, ethyl 2-(4-fluorophenoxy)-5-oxo-2-tetrahydrofurancarboxylate, reference compound]
IC50 [1, 4]: 0.1 µM | IC50 [1, 6]: 0.1 µM | IC50 [2, 5]: 0.1 µM | IC50 [2, 7]: 0.1 µM | selectivity of the suppressive effect on renal lesions [3, 8]: no selective suppression was observed | Rate of Cases where Glomerular Lesion was Suppressed [3, 8]: 75% (3/4) | Rate of Cases where tubulointerstitial Lesion was Suppressed [3, 8]: 75% (3/4) | Serum Creatinine level (mg/dl) on the 7th Day from Release of Obstruction [3, 8]: 2.2 ± 0.2 mg/dL | Weight of Kidney (g) on the 7th Day from Release of Obstruction [3, 8]: 2.73 ± 0.41 g | Suppressive Effect to Glomerular Lesion [3, 10]: ∘ | Suppressive Effect to Lesion of Tubulointerstitial Tissue [3, 10]: ∘

O=C(O)C(=O)c1ccccc1C(=O)O [(7-7)]
IC50 [1, 4]: > 1 µM | functional group (selective suppression of SPFC production by allo-MLC or LPS stimulation) [1]: group II | IC50 [2, 5]: 0.01 µM

CC(OC(=O)[C@@]1(Oc2ccc(F)cc2)CCC(=O)O1)c1ccc2ccccc2c1 (mixture of isomers) [(3-2), (RS)-(+)-α-methyl-2-naphthalene-methyl 2-(4-fluorophenoxy)-5-oxotetrahydrofuran-2-carboxylate]
IC50 [1, 4]: > 1 µM | IC50 [1, 6]: > 1 µM | functional group (selective suppression of SPFC production by allo-MLC or LPS stimulation) [1]: group II | IC50 [2, 5]: 1 µM | IC50 [2, 7]: 1 µM | selectivity of the suppressive effect on renal lesions [3, 8]: selective suppressive effect | suppression of glomerular lesion [3, 8]: suppressed the glomerular lesion only | suppression of lesion of tubulointerstitial tissue [3, 8]: did not suppress | Rate of Cases where Glomerular Lesion was Suppressed [3, 8]: 100% (5/5) | Serum Creatinine level (mg/dl) on the 7th Day from Release of Obstruction [3, 8]: 2.0 ± 0.4 mg/dL | Weight of Kidney (g) on the 7th Day from Release of Obstruction [3, 8]: 4.36 ± 0.95 g | Suppressive Effect to Glomerular Lesion [3, 9]: ∘ | Suppressive Effect to Lesion of Tubulointerstitial Tissue [3, 9]: x

O=C1CCC(F)(C(=O)OCc2ccccc2)O1 (centres unmarked) [(6-2), Benzyl 2-fluoro-5-oxotetrahydrofuran-2-carboxylate]
functional group (selective suppression of SPFC production by allo-MLC or LPS stimulation) [1]: group II | IC50 [2, 5]: 0.001 µM | IC50 [2, 7]: 0.001 µM | Suppressive Effect to Glomerular Lesion [3, 9]: ∘ | Suppressive Effect to Lesion of Tubulointerstitial Tissue [3, 9]: x

O=C1CCC(Cc2ccc(F)cc2)(C(=O)O)O1 (centres unmarked) [(5-2), 2-(4-fluorobenzyl)-5-oxo-tetrahydrofuran-2-carboxylic Acid]
IC50 [1, 4]: 0.1 µM | functional group (selective suppression of SPFC production by allo-MLC or LPS stimulation) [1]: group II | IC50 [2, 5]: 0.01 µM

O=C1OC(O)(C(=O)OCc2ccccc2)c2ccccc21 (centres unmarked) [(7-1), Benzyl 1-hydroxy-3-oxo-1,3-dihydroisobenzofuran-1-carboxylate]
IC50 [1, 4]: 0.1 µM | functional group (selective suppression of SPFC production by allo-MLC or LPS stimulation) [1]: group I | IC50 [2, 5]: 1 µM

O=C1OC(F)(C(=O)OCc2ccccc2)c2ccccc21 (centres unmarked) [(7-2), Benzyl 1-fluoro-3-oxo-1,3-dihydro-isobenzofuran-1-carboxylate]
IC50 [1, 4]: > 1 µM | functional group (selective suppression of SPFC production by allo-MLC or LPS stimulation) [1]: group II | IC50 [2, 5]: 0.1 µM

N#CC1(C(=O)OCc2ccccc2)CCC(=O)O1 (centres unmarked) [(6-3), Benzyl 2-cyano-5-oxotetrahydrofuran-2-carboxylate]
IC50 [1, 4]: 0.1 µM | functional group (selective suppression of SPFC production by allo-MLC or LPS stimulation) [1]: group II | IC50 [2, 5]: 0.001 µM

O=C1CCC(Cc2ccccc2)(C(=O)OCc2ccccc2)O1 (centres unmarked) [(5-4), Benzyl 2-benzyl-5-oxo-tetrahydrofuran-2-carboxylate]
IC50 [1, 4]: 0.01 µM | functional group (selective suppression of SPFC production by allo-MLC or LPS stimulation) [1]: group I | IC50 [2, 5]: 1 µM

O=C1OC(Oc2ccc(F)cc2)(C(=O)O)c2ccccc21 (centres unmarked) [(7-6), 1-(4-fluorophenoxy)-3-oxo-1,3-dihydro-isobenzofuran-1-carboxylic Acid]
IC50 [1, 4]: > 1 µM | functional group (selective suppression of SPFC production by allo-MLC or LPS stimulation) [1]: group II | IC50 [2, 5]: 0.01 µM
